Measurements published in ChEMBL document CHEMBL5303573, “Mapping human microbiome drug metabolism by gut bacteria and their genes” (Nature, 2019).

How the values were obtained:
[1] = The drug is tested on Bifidobacterium ruminantium strain: fecal isolate for biotransformation. The drug concentrations were measured before and after a 12-h incubation by liquid-chromatography-coupled mass spectrometry (LC–MS); settings: 2 µM
[2] = The drug is tested on Bacteroides fragilis strain: HMW615 for biotransformation. The drug concentrations were measured before and after a 12-h incubation by liquid-chromatography-coupled mass spectrometry (LC–MS); settings: 2 µM
[3] = The drug is tested on Bacteroides ovatus strain: ATCC8483 for biotransformation. The drug concentrations were measured before and after a 12-h incubation by liquid-chromatography-coupled mass spectrometry (LC–MS); settings: 2 µM
[4] = The drug is tested on Bacteroides pectinophilus strain: ATCC43243 for biotransformation. The drug concentrations were measured before and after a 12-h incubation by liquid-chromatography-coupled mass spectrometry (LC–MS); settings: 2 µM
[5] = The drug is tested on Bacteroides uniformis strain: ATCC8492 for biotransformation. The drug concentrations were measured before and after a 12-h incubation by liquid-chromatography-coupled mass spectrometry (LC–MS); settings: 2 µM
[6] = The drug is tested on Bacteroides xylanisolvens strain: DSM18836 for biotransformation. The drug concentrations were measured before and after a 12-h incubation by liquid-chromatography-coupled mass spectrometry (LC–MS); settings: 2 µM
[7] = The drug is tested on Enterococcus faecalis strain: V583 for biotransformation. The drug concentrations were measured before and after a 12-h incubation by liquid-chromatography-coupled mass spectrometry (LC–MS); settings: 2 µM
[8] = The drug is tested on Ruminococcus gnavus strain: ATCC29149 for biotransformation. The drug concentrations were measured before and after a 12-h incubation by liquid-chromatography-coupled mass spectrometry (LC–MS); settings: mediterraneibacter gnavus, 2 µM
[9] = The drug is tested on Edwardsiella tarda strain: ATCC23685 for biotransformation. The drug concentrations were measured before and after a 12-h incubation by liquid-chromatography-coupled mass spectrometry (LC–MS); settings: 2 µM
[10] = The drug is tested on Providencia rettgeri strain: DSM1131 for biotransformation. The drug concentrations were measured before and after a 12-h incubation by liquid-chromatography-coupled mass spectrometry (LC–MS); type: ADME; design: dose 2 uM, timepoint 0 vs 12 hours; settings: 2 µM
[11] = The drug is tested on Providencia stuartii strain: ATCC25827 for biotransformation. The drug concentrations were measured before and after a 12-h incubation by liquid-chromatography-coupled mass spectrometry (LC–MS); settings: 2 µM
[12] = bacteroides thetaiotaomicron, 12 h, 2 µM
Description: The drug is tested on Bacteroides thetaiotaomicron strain: 7330 for biotransformation. The drug concentrations were measured before and after a 12-h incubation by liquid-chromatography-coupled mass spectrometry (LC–MS)

[13] = roseburia intestinalis, 12 h, 2 µM
Description: The drug is tested on Roseburia intestinalis strain: L1-82 for biotransformation. The drug concentrations were measured before and after a 12-h incubation by liquid-chromatography-coupled mass spectrometry (LC–MS)

[14] = The drug is tested on Clostridium scindens strain: ATCC35704 for biotransformation. The drug concentrations were measured before and after a 12-h incubation by liquid-chromatography-coupled mass spectrometry (LC–MS); settings: 2 µM
[15] = The drug is tested on Ruminococcus lactaris strain: ATCC29176 for biotransformation. The drug concentrations were measured before and after a 12-h incubation by liquid-chromatography-coupled mass spectrometry (LC–MS); settings: 2 µM
[16] = The drug is tested on Subdoligranulum variabile strain: DSM15176 for biotransformation. The drug concentrations were measured before and after a 12-h incubation by liquid-chromatography-coupled mass spectrometry (LC–MS); settings: 2 µM
[17] = bacteroides fragilis, 12 h, 2 µM
Description: The drug is tested on Bacteroides fragilis strain: NCTC 9343 for biotransformation. The drug concentrations were measured before and after a 12-h incubation by liquid-chromatography-coupled mass spectrometry (LC–MS)

[18] = bacteroides thetaiotaomicron, 12 h, 2 µM; remark: listed apart in the source
Description: The drug is tested on Bacteroides thetaiotaomicron strain: VPI-5482 for biotransformation. The drug concentrations were measured before and after a 12-h incubation by liquid-chromatography-coupled mass spectrometry (LC–MS)

[19] = The drug is tested on Bacteroides fragilis strain: HMW610 for biotransformation. The drug concentrations were measured before and after a 12-h incubation by liquid-chromatography-coupled mass spectrometry (LC–MS); settings: 2 µM
[20] = The drug is tested on Clostridium sp. strain: fecal isolate for biotransformation. The drug concentrations were measured before and after a 12-h incubation by liquid-chromatography-coupled mass spectrometry (LC–MS); settings: 2 µM

Compound: C=C[C@H]1CN2CC[C@H]1C[C@H]2[C@H](O)c1ccnc2ccc(OC)cc12.C=C[C@H]1CN2CC[C@H]1C[C@H]2[C@H](O)c1ccnc2ccc(OC)cc12.O.O.O=S(=O)(O)O [QUININE SULFATE]
- Bacterial Biotransformation [1]: Compound NOT metabolized
- Bacterial Biotransformation [2]: Compound NOT metabolized
- Bacterial Biotransformation [3]: Compound NOT metabolized
- Bacterial Biotransformation [4]: Compound NOT metabolized
- Bacterial Biotransformation [5]: Compound NOT metabolized
- Bacterial Biotransformation [6]: Compound NOT metabolized
- Bacterial Biotransformation [7]: Compound NOT metabolized
- Bacterial Biotransformation [8]: Compound NOT metabolized
- Bacterial Biotransformation [9]: Compound NOT metabolized
- Bacterial Biotransformation [10]: Compound NOT metabolized
- Bacterial Biotransformation [11]: Compound NOT metabolized
- Bacterial Biotransformation [12]: Compound NOT metabolized
- Bacterial Biotransformation [13]: Compound NOT metabolized

Compound: O=C(O[C@H]1C[C@H]2CC[C@@H](C1)[N+]21CCCC1)C(O)(c1ccccc1)c1ccccc1.[Cl-] [TROSPIUM CHLORIDE]
- Bacterial Biotransformation [1]: Compound NOT metabolized
- Bacterial Biotransformation [3]: Compound NOT metabolized
- Bacterial Biotransformation [5]: Compound NOT metabolized
- Bacterial Biotransformation [6]: Compound NOT metabolized
- Bacterial Biotransformation [14]: Compound NOT metabolized
- Bacterial Biotransformation [7]: Compound NOT metabolized
- Bacterial Biotransformation [8]: Compound NOT metabolized
- Bacterial Biotransformation [15]: Compound NOT metabolized
- Bacterial Biotransformation [16]: Compound NOT metabolized
- Bacterial Biotransformation [9]: Compound NOT metabolized
- Bacterial Biotransformation [10]: Compound NOT metabolized
- Bacterial Biotransformation [11]: Compound NOT metabolized
- Bacterial Biotransformation [17]: Compound NOT metabolized
- Bacterial Biotransformation [18]: Compound NOT metabolized
- Bacterial Biotransformation [12]: Compound NOT metabolized
- Bacterial Biotransformation [13]: Compound NOT metabolized

Compound: CC(C)(C)NCC(O)COc1cccc2c1CC(O)C(O)C2 (stereo not drawn) [NADOLOL]
- Bacterial Biotransformation [19]: Compound NOT metabolized
- Bacterial Biotransformation [2]: Compound NOT metabolized
- Bacterial Biotransformation [3]: Compound NOT metabolized
- Bacterial Biotransformation [4]: Compound NOT metabolized
- Bacterial Biotransformation [5]: Compound NOT metabolized
- Bacterial Biotransformation [6]: Compound NOT metabolized
- Bacterial Biotransformation [20]: Compound NOT metabolized
- Bacterial Biotransformation [14]: Compound NOT metabolized
- Bacterial Biotransformation [7]: Compound NOT metabolized
- Bacterial Biotransformation [8]: Compound NOT metabolized
- Bacterial Biotransformation [15]: Compound NOT metabolized
- Bacterial Biotransformation [9]: Compound NOT metabolized
- Bacterial Biotransformation [10]: Compound NOT metabolized
- Bacterial Biotransformation [11]: Compound NOT metabolized
- Bacterial Biotransformation [18]: Compound NOT metabolized
- Bacterial Biotransformation [12]: Compound NOT metabolized
- Bacterial Biotransformation [13]: Compound NOT metabolized

Compound: CCCCC(=O)N(Cc1ccc(-c2ccccc2-c2nnn[nH]2)cc1)[C@H](C(=O)O)C(C)C
- Bacterial Biotransformation [1]: Compound NOT metabolized
- Bacterial Biotransformation [19]: Compound metabolized
- Bacterial Biotransformation [2]: Compound metabolized
- Bacterial Biotransformation [3]: Compound NOT metabolized
- Bacterial Biotransformation [4]: Compound NOT metabolized
- Bacterial Biotransformation [5]: Compound metabolized
- Bacterial Biotransformation [6]: Compound metabolized
- Bacterial Biotransformation [20]: Compound NOT metabolized
- Bacterial Biotransformation [14]: Compound NOT metabolized
- Bacterial Biotransformation [7]: Compound NOT metabolized
- Bacterial Biotransformation [8]: Compound NOT metabolized
- Bacterial Biotransformation [15]: Compound NOT metabolized
- Bacterial Biotransformation [9]: Compound NOT metabolized
- Bacterial Biotransformation [10]: Compound NOT metabolized
- Bacterial Biotransformation [11]: Compound NOT metabolized
- Bacterial Biotransformation [17]: Compound NOT metabolized
- Bacterial Biotransformation [12]: Compound metabolized
